Key:
[1] = Carbonic corrosion-inhibitory efficiency by polarization resistance in CO2-saturated NACE-type solution; conditions: 25° C., reading after 6 hours
Experimental: The experimental procedures intended to evaluate the corrosion-inhibitory efficiencies in carbon dioxide-saturated medium of the products used (A, B and C of Example 1) are described in this example. In order to simulate the corrosive medium, a solution of NACE type containing 50 g/l of NaCl and 0.25 mg/l of acetic acid, saturated by continuously bubbling CO2 through, depending on the case, and with inhibitor added or not added, is used.
The process is performed in a thermostatically regulated 600 ml Pyrex cell including, besides a gas inlet and outlet, three electrodes coupled to the cell by ground joints, namely a carbon-steel working electrode whose surface of contact with the corrosive solution is 1 cm^2, a saturated calomel reference electrode and a platinum counterelectrode having a very large surface of contact with the corrosive solution. 500 ml of the corrosive solution is placed in the cell, as control or with inhibitor added, after which the counterelectrode and the reference electrode are put in place. The solution is de-aerated by bubbling nitrogen through for one hour and is then saturated with CO2 by bubbling for at least one hour. In order to ensure good saturation with CO2, this gas is left to bubble through throughout the experiment.
The rate of corrosion Vcorr is measured by a method of measuring polarization resistance, which is known in the art. The corrosion rate reading is taken after stabilization for 6 hours.
The percentage of protection (%P) which allows the corrosion-inhibitory efficiency of the test product to be expressed is given by the relationship:
%P={(V^0corr−V^icorr)/V^0corr}×100
where V^0corr=rate of corrosion without inhibitor
V^icorr=rate of corrosion in the presence of a dose of inhibitor.
Table II collates the percentages of protection at room temperature (25° C.) as a function of the nature of the polymethylenepolyaminodipropionamides used and their dose.

[2] = system: Photobacterium phosphoreum; assay: Microtox bacterial ecotoxicity test (AFNOR NF T90-320); assay type: cell-based; conditions: lethal concentration to destroy 50% of the population in 15 minutes
Experimental: (§1) The ecotoxicity measurements for various polymethylenepolyaminedipropionamides were carried out on a bacterium (Photobacterium phosphoreum) and on an alga (Skeletonema costatum) . The bacterial test is the Microtox test carried out according to AFNOR standard NF T90-320. The toxicities on Skeletonema costatum are determined according to the method ISO/DIS 10253. The Microtox toxicity is expressed as LC50 (lethal concentration in mg/l to destroy 50% of the population in 15 minutes). On Skeletonema costatum, the toxicity is expressed as EC50 (effective concentration in mg/l to inhibit the growth of 50% of the population in 72 hours).

Skeletonema costatum = assay: Algal ecotoxicity test (ISO/DIS 10253); assay type: cell-based; conditions: concentration to inhibit the growth of 50% of the population in 72 hours
Experimental: as §1

Row | SMILES | PERCENTAGE OF PROTECTION (%) ([1]; dose 10 ppm) | PERCENTAGE OF PROTECTION (%) ([1]; dose 20 ppm) | PERCENTAGE OF PROTECTION (%) ([1]; dose 50 ppm) | PERCENTAGE OF PROTECTION (%) ([1]; dose 100 ppm) | Toxicity Microtox (LC50) [2] | Toxicity Skeletonema costatum (EC50) (Skeletonema costatum)
1 | NC(=O)CCNCCNCCNCCC(N)=O [Molecule A, H2NCO—(CH2)2—NH—[—(CH2)2 —NH—]2—(CH2)2—CONH2 (RN 92009-86-4)] | 24% | 44% | 48% | 53% | 128 µg/mL | 
2 | NC(=O)CCNCCNCCNCCNCCC(N)=O [Molecule B, H2NCO—(CH2)2—NH—[—(CH2)2 —NH—]3—CH2)2—CONH2] | 34% | 43% | 48% | 56% | 104 µg/mL | 
3 | NC(=O)CCNCCCNCCNCCCNCCC(N)=O [Molecule C, H2NCO—(CH2)2—NH—(CH2)3—NH—(CH2)2—NH—(CH2)3—NH—(CH2)2—CONH2] | 63% | 70% | 73% | 82% | 127 µg/mL | 5 to 10 µg/mL
